Assay results taken from paper PMC8719450 (Xenobiotica; the fate of foreign compounds in biological …, 2021).
Where two headings read alike, the source gives them in different places. One block for each compound: values may come before it.

Legend:
[1] = target: T1, CYP2A6 (Homo sapiens, UniProt P11509); details: 20 min, 60 μM
T1 sequence (P11509 1-494): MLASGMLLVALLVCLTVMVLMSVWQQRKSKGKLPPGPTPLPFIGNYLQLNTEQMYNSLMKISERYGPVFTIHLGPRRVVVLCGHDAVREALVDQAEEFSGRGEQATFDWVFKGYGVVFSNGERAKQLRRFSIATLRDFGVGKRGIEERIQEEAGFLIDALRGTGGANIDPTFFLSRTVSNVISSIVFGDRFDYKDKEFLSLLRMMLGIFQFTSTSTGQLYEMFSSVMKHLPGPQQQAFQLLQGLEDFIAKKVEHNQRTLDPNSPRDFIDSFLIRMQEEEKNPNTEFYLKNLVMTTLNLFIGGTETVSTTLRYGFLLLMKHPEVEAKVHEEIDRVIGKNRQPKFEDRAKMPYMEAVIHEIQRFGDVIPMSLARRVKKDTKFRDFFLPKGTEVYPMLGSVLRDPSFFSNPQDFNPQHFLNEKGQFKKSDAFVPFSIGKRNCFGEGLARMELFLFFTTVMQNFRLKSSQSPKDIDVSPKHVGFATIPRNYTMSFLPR

[2] = system: sample HH47 liver microsomes; format: in vitro ADME, human; details: substrate flavone 60 μM, inhibitor 10 μM
[3] = format: in vitro ADME; details: human, human liver microsomes (sample HH54), probe flavone (60 µM), formation of diOHFM4 (3´4´diOHF)
[4] = target: T2, CYP2B6 (Homo sapiens, UniProt P20813); format: in vitro ADME
T2 sequence (P20813 1-491): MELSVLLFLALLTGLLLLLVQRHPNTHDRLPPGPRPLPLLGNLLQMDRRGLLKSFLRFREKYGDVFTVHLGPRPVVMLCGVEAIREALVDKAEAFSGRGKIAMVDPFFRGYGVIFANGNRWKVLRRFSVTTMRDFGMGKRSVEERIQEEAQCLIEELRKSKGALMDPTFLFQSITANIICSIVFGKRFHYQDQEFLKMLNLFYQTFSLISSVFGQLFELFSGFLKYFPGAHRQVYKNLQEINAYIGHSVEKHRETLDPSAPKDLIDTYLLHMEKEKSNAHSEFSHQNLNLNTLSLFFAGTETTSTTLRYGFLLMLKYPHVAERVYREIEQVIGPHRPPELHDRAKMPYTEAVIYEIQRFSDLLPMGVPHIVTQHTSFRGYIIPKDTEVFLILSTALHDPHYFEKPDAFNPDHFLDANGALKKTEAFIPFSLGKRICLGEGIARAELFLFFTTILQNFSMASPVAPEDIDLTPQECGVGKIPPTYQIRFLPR

[5] = system: liver microsomes of human sample HH2; assay: Oxidation of flavonoids by human liver microsomes, sample HH2; format: in vitro ADME
[6] = target: CYP3A4 (Homo sapiens, UniProt P08684); assay: Oxidation of flavonoids by reconstituted recombinant P450, LC-MS/MS; format: in vitro ADME
CYP3A4, sequence (P08684 whole entry): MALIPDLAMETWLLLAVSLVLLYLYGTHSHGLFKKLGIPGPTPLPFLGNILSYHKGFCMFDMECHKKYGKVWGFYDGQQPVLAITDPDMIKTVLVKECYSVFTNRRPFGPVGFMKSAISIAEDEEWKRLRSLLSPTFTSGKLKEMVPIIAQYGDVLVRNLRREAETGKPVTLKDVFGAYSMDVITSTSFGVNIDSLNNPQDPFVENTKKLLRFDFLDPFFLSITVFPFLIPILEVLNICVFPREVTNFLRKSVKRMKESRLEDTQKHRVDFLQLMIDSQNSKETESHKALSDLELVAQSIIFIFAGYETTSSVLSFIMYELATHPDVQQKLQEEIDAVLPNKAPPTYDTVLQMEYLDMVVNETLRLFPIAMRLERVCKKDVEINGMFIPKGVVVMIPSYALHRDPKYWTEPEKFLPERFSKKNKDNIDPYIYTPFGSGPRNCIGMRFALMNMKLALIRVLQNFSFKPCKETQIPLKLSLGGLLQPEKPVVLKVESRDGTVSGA

[7] = target: T1, CYP2A6; assay: as above
[8] = target: CYP2C9 (Homo sapiens, UniProt P11712); assay: as above; format: in vitro ADME
CYP2C9, sequence (P11712 whole entry): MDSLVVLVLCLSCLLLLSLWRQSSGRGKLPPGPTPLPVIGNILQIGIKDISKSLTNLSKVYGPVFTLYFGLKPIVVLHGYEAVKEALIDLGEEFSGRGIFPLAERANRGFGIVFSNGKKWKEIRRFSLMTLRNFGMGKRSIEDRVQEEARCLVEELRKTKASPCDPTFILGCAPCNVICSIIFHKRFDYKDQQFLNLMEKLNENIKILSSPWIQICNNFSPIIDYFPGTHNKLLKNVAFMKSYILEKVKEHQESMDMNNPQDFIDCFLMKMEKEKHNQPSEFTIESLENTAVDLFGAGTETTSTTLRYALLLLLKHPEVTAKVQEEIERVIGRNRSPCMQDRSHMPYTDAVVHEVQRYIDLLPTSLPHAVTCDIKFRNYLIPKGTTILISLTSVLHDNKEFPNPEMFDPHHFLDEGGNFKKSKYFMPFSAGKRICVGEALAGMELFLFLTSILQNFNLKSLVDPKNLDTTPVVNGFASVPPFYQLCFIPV

[9] = guinea pigs, oral 30 mg of flavone, ref Das and Griffiths (1966), cited from earlier work
[10] = rats, oral or intraperitoneal administration; ref Das and Griffiths (1966); cited from earlier work

- rate of O-demethylation to form M2 (4´OHF) [1]: 0.029 min⁻¹
- rate of formation of M1 (3´4´diOHF) [1]: 0.0004 min^1
SMILES: COc1ccc(-c2cc(=O)c3ccccc3o2)cc1 [4´MeF, 4´-methoxyflavone]

- inhibition at 20 min [3]: 65%
SMILES: O=c1cc(-c2ccccc2)oc2c1ccc1ccccc12 [ANF, α-naphthoflavone]
- inhibition of formation of OHFM5, OHFM7, 6OHF, and OHFM12 [2]: inhibited

- inhibition at 20 min [3]: 75%
SMILES: O=c1ccc2ccccc2o1 [coumarin]
- inhibition of formation of OHFM6 and OHFM9 [2]: strongly inhibited

- activity in oxidizing flavone [4]: not very active
- production of OHFM6, OHFM9, and diOHFM4 [5]: very little
- activity in oxidizing flavone [6]: not very active
- activity in oxidizing to OHFM6 (4´OHF) and OHFM9 (3´OHF) [7]: highly active
- activity in oxidizing flavone [8]: not very active
SMILES: O=c1cc(-c2ccccc2)oc2ccccc12 [flavone]
- urinary excretion of 4´OHF ([9]; first day): 622 µg
- urinary excretion of 4´OHF ([9]; fourth day): 0 µg
- urinary excretion of 4´OHF ([9]; second day): 309 µg
- urinary excretion of 4´OHF ([9]; third day): 15 µg
- 3´4´diOHF found in urine [10]: small amounts
